This is an account of results in PMC8286840, “Identifying SARS-CoV-2 antiviral compounds by screening for small molecule inhibitors of Nsp3 papain-like protease” (Biochemical Journal, 2021).

The target in assay [1] is T1, SARS-CoV-2 PLpro (nsp3 1564–1878) (Severe acute respiratory syndrome coronavirus 2, UniProt P0DTD1). Put plainly: biochemical. The conditions noted are these: read-out: % of control remaining. Also on record: FRET-quenched peptide (Pro3) cleavage by PLpro, 10 min pre-incubation, slope over 20 min, normalised to no-compound control.
In assay [2] the target is T1, SARS-CoV-2 PLpro (nsp3 1564–1878). Put plainly: biochemical. The following applies: read-out: % of control remaining. Also on record: FRET-quenched peptide (Pro3) cleavage by PLpro, 10 min pre-incubation, slope over 20 min, normalised to no-compound control. This is another data set of the same source.

Counter-ions that a name gives are not always drawn. Like-named read-outs stand apart in the source and are kept apart here.

Turning to `CCCC(CCC)C(=O)O` [Divalproex sodium], the remaining activity at 1.25 µM in assay [1] (Well no.=5341, low concentration screen) was determined as 97.2%. Besides, the remaining activity at 3.75 µM in assay [2] (Well no.=5341, high concentration screen) was 95.4%.
For `CC(CCc1ccc(O)cc1)NCCc1ccc(O)c(O)c1` (stereo not drawn) [Dobutamine hydrochloride], the remaining activity at 1.25 µM in assay [1] (Well no.=587, low concentration screen) stood at 97.5%. Further, the remaining activity at 3.75 µM in assay [2] (Well no.=587, high concentration screen) came out at 99.5%.
With `CC(CCc1ccc(O)cc1)NCCc1ccc(O)c(O)c1` (stereo not drawn) [Dobutamine.HCl], the remaining activity at 1.25 µM in assay [1] (Well no.=1781, low concentration screen) was 101%. The remaining activity at 3.75 µM in assay [2] (Well no.=1781, high concentration screen) came to 103%.
For `CC1=C(C)C(=O)C(CCCCC#CCCCC#CCO)=C(C)C1=O` [Docebenone], the remaining activity at 1.25 µM in assay [1] (Well no.=1917, low concentration screen) was found to be 90.8%. In assay [2] (Well no.=1917, high concentration screen), the remaining activity at 3.75 µM was found to be 90.2%.
Consider `CCCCCCCCCCCCCCCCCCCCCC(=O)O` [Docosanoic acid], for which the remaining activity at 1.25 µM in assay [1] (Well no.=4456, low concentration screen) came out at 100%. Besides, in assay [2] (Well no.=4456, high concentration screen), the remaining activity at 3.75 µM was 99.7%.
Consider `CC/C=C\C/C=C\C/C=C\C/C=C\C/C=C\CCCCCC(=O)O` [Docosapentaenoic acid], for which the remaining activity at 1.25 µM in assay [1] (Well no.=4347, low concentration screen) amounted to 105%; in assay [1] (Well no.=4492, low concentration screen), 93.7%. In addition, the remaining activity at 3.75 µM in assay [2] (Well no.=4347, high concentration screen) was found to be 105%; in assay [2] (Well no.=4492, high concentration screen), 91.7%.
As to `CCCCC(CC)COC(=O)CC(C(=O)OCC(CC)CCCC)S(=O)(=O)O` (stereo not drawn) [Docusate Sodium], the remaining activity at 1.25 µM in assay [1] (Well no.=8348, low concentration screen) amounted to 94.3%. In addition, the remaining activity at 3.75 µM in assay [2] (Well no.=8348, high concentration screen) was 92.6%.
Turning to `CCCCCCCCCCCC(=O)O` [Dodecanoic acid], the remaining activity at 1.25 µM in assay [1] (Well no.=4256, low concentration screen) is 101%. Moreover, in assay [2] (Well no.=4256, high concentration screen), the remaining activity at 3.75 µM is 94.8%.
For the compound `CN(CCOc1ccc(NS(C)(=O)=O)cc1)CCc1ccc(NS(C)(=O)=O)cc1` [Dofetilide], the remaining activity at 1.25 µM in assay [1] (Well no.=1659, low concentration screen) turned out to be 108%. In assay [2] (Well no.=1659, high concentration screen), the remaining activity at 3.75 µM was determined as 106%.
For the compound `O=C(O[C@@H]1C[C@@H]2C[C@H]3C[C@H](C1)N2CC3=O)c1c[nH]c2ccccc12` [Dolasetron (Mesylate hydrate)], the remaining activity at 1.25 µM in assay [1] (Well no.=7381, low concentration screen) came out at 108%. For the same compound, the remaining activity at 3.75 µM in assay [2] (Well no.=7381, high concentration screen) stood at 98%.
With `O=C(O[C@@H]1C[C@@H]2C[C@H]3C[C@H](C1)N2CC3=O)c1c[nH]c2ccccc12` [Dolasetron], the remaining activity at 1.25 µM in assay [1] (Well no.=1870, low concentration screen) stood at 96.1%; in assay [1] (Well no.=6235, low concentration screen), 106%. Also, the remaining activity at 3.75 µM in assay [2] (Well no.=1870, high concentration screen) worked out at 96.3%; in assay [2] (Well no.=6235, high concentration screen) it was 105%.
Consider `C/C(=C/C=C/[C@@H](C)C(=O)O)[C@H]1CN[C@H](C(=O)O)[C@H]1CC(=O)O` [Domoic acid], for which the remaining activity at 1.25 µM in assay [1] came to 99.4%. Further, in assay [2], the remaining activity at 3.75 µM was found to be 102%.
Turning to `O=c1[nH]c2ccccc2n1CCCN1CCC(n2c(=O)[nH]c3cc(Cl)ccc32)CC1` [Domperidone], the remaining activity at 1.25 µM amounted to 107% in assay [1] (Well no.=496, low concentration screen); 96.5% in assay [1] (Well no.=1598, low concentration screen); 94% in assay [1] (Well no.=7485, low concentration screen). The remaining activity at 3.75 µM is 104% in assay [2] (Well no.=496, high concentration screen); 99.4% in assay [2] (Well no.=1598, high concentration screen); 89.8% in assay [2] (Well no.=7485, high concentration screen).
For `NCCc1ccc(O)c(O)c1` [Dopamine (hydrochloride)], in assay [1] (Well no.=6268, low concentration screen), the remaining activity at 1.25 µM amounted to 96.9%. The remaining activity at 3.75 µM in assay [2] (Well no.=6268, high concentration screen) is 96.3%.
With `NCCc1ccc(O)c(O)c1` [Dopamine hydrochloride], the remaining activity at 1.25 µM in assay [1] (Well no.=518, low concentration screen) came out at 102%. In assay [2] (Well no.=518, high concentration screen), the remaining activity at 3.75 µM is 99.9%.
Take `C[C@@H](O)[C@H]1C(=O)N2C(C(=O)O)=C(S[C@@H]3CN[C@H](CNS(N)(=O)=O)C3)[C@H](C)[C@H]12` [Doripenem Hydrate]: the remaining activity at 1.25 µM in assay [1] (Well no.=5203, low concentration screen) is 103%. In addition, the remaining activity at 3.75 µM in assay [2] (Well no.=5203, high concentration screen) stood at 104%.
As to `CCN[C@H]1C[C@H](C)S(=O)(=O)c2sc(S(N)(=O)=O)cc21` [Dorzolamide HCl], the remaining activity at 1.25 µM in assay [1] (Well no.=5205, low concentration screen) is 92.8%. For the same compound, in assay [2] (Well no.=5205, high concentration screen), the remaining activity at 3.75 µM amounted to 95%.
As to `CCN[C@H]1C[C@H](C)S(=O)(=O)c2sc(S(N)(=O)=O)cc21` [Dorzolamide.HCl], in assay [1] (Well no.=1878, low concentration screen), the remaining activity at 1.25 µM was determined as 96.7%. For the same compound, the remaining activity at 3.75 µM in assay [2] (Well no.=1878, high concentration screen) was 96.1%.
As to `CCN1CC(CCN2CCOCC2)C(c2ccccc2)(c2ccccc2)C1=O` (stereo not drawn) [Doxapram HCl], the remaining activity at 1.25 µM in assay [1] (Well no.=5120, low concentration screen) stood at 98.8%. Moreover, the remaining activity at 3.75 µM in assay [2] (Well no.=5120, high concentration screen) is 96.1%.
For `COc1cc2nc(N3CCN(C(=O)C4COc5ccccc5O4)CC3)nc(N)c2cc1OC` (stereo not drawn) [Doxazosin (mesylate)], the remaining activity at 1.25 µM in assay [1] (Well no.=8187, low concentration screen) was determined as 105%. For the same compound, in assay [2] (Well no.=8187, high concentration screen), the remaining activity at 3.75 µM was 102%.
In the case of `COc1cc2nc(N3CCN(C(=O)C4COc5ccccc5O4)CC3)nc(N)c2cc1OC` (stereo not drawn) [Doxazosin mesylate], the remaining activity at 1.25 µM in assay [1] (Well no.=730, low concentration screen) came out at 98.2%. The remaining activity at 3.75 µM in assay [2] (Well no.=730, high concentration screen) was found to be 93.7%.
As for `COc1cc2nc(N3CCN(C(=O)C4COc5ccccc5O4)CC3)nc(N)c2cc1OC` (stereo not drawn) [Doxazosin], the remaining activity at 1.25 µM in assay [1] (Well no.=1988, low concentration screen) was determined as 103%. In addition, the remaining activity at 3.75 µM in assay [2] (Well no.=1988, high concentration screen) worked out at 104%.
Consider `CN(C)CCC=C1c2ccccc2COc2ccccc21` [Doxepin hydrochloride], for which the remaining activity at 1.25 µM in assay [1] (Well no.=451, low concentration screen) came out at 105%. Also, in assay [2] (Well no.=451, high concentration screen), the remaining activity at 3.75 µM was found to be 102%.
`C[C@H]1O[C@@H](n2cc(F)c(=O)[nH]c2=O)[C@H](O)[C@@H]1O` [Doxifluridine]: the remaining activity at 1.25 µM in assay [1] (Well no.=1990, low concentration screen) stood at 101%; in assay [1] (Well no.=8843, low concentration screen), 96.7%. In addition, the remaining activity at 3.75 µM in assay [2] (Well no.=1990, high concentration screen) was determined as 103%; in assay [2] (Well no.=8843, high concentration screen), 89.3%.
For the compound `Cn1c(=O)c2c(ncn2CC2OCCO2)n(C)c1=O` [Doxofylline], the remaining activity at 1.25 µM in assay [1] (Well no.=2020, low concentration screen) was found to be 100%; in assay [1] (Well no.=8323, low concentration screen), 99.7%. For the same compound, the remaining activity at 3.75 µM amounted to 99.1% in assay [2] (Well no.=2020, high concentration screen) and 94.2% in assay [2] (Well no.=8323, high concentration screen).
Consider `COc1cccc2c1C(=O)c1c(O)c3c(c(O)c1C2=O)C[C@@](O)(C(=O)CO)C[C@@H]3O[C@H]1C[C@H](N)[C@H](O)[C@H](C)O1` [Doxorubicin.HCl], for which the remaining activity at 1.25 µM turned out to be 98.5% in assay [1] (Well no.=1710, low concentration screen) and 105% in assay [1] (Well no.=3235, low concentration screen). Besides, the remaining activity at 3.75 µM in assay [2] (Well no.=1710, high concentration screen) was determined as 100%; in assay [2] (Well no.=3235, high concentration screen), 105%.
As to `C[C@H]1c2cccc(O)c2C(=O)C2=C(O)[C@]3(O)C(=O)C(C(N)=O)=C(O)[C@@H](N(C)C)[C@@H]3[C@@H](O)[C@@H]21` [Doxycycline hydrochloride], the remaining activity at 1.25 µM in assay [1] (Well no.=396, low concentration screen) amounted to 105%. Moreover, the remaining activity at 3.75 µM in assay [2] (Well no.=396, high concentration screen) is 108%.
For `C[C@H]1c2cccc(O)c2C(=O)C2=C(O)[C@]3(O)C(=O)C(C(N)=O)=C(O)[C@@H](N(C)C)[C@@H]3[C@@H](O)[C@@H]21` [Doxycycline], the remaining activity at 1.25 µM in assay [1] (Well no.=2022, low concentration screen) was 106%. In assay [2] (Well no.=2022, high concentration screen), the remaining activity at 3.75 µM came out at 107%.
Consider `CN(C)CCOC(C)(c1ccccc1)c1ccccn1` (stereo not drawn) [Doxylamine (succinate)], for which, in assay [1] (Well no.=6421, low concentration screen), the remaining activity at 1.25 µM came out at 99.2%. Moreover, in assay [2] (Well no.=6421, high concentration screen), the remaining activity at 3.75 µM came out at 102%.
